Data published in article PMC7179128, “Characterizations and Assays of α-Glucosidase Inhibition Activity on Gallic Acid Cocrystals: Can the Cocrystals be Defined as a New Chemical Entity During Binding with the α-Glucosidase?” (Molecules, 2020).

Assays:
[1] = Oral bioavailability / pharmacokinetics in SD rats; format: in vivo; conditions: rat, single dose 50 mg∙kg^−1 (GA equivalent), n = 6, GA in plasma
Procedure: Co., Ltd., Shanghai, China) at 25 °C in five different solutions (pH 1, 2, 4, 8 and water, respectively) using the shake-flask method. Excess sample was added in the solvent and the suspension was shaken for 72 h in an air bath. The suspension was filtered through a 0.45 μm Millipore filter. Then, the GA concentration was determined using HPLC (Agilent 1200, Santa Clara, CA, USA). […] Approximately 50 mg of the sample (here single GA and cocrystals equivalent to 50 mg of GA) were placed in 900 mL dissolution media. Four milliliters of the suspensions were taken at appropriate intervals and immediately replaced by 4 mL of fresh dissolution media. All samples were filtered through a 0.45 μm Millipore filter. The concentration of GA in all samples were determined by HPLC. All tests were repeated thrice. Bioavailability in vivo was assayed using SD rats. […] The intragastric suspensions were prepared by suspending GA or the cocrystal (equivalent to same amount of GA) in 5% sodium carboxymethyl cellulose. Thereafter, the intragastric suspensions were orally administered to the rats at a single dose of 50 mg∙kg^-1. An approximately 500 μL blood sample was obtained from the eye canthus and collected into 1.5 mL heparinized plastic centrifuge tubes at the set time point after intragastric administration. GA was extracted from plasma by protein precipitation. One hundred microliters of plasma was mixed with internal standard solution (20 μL) in the centrifuge tube; then, the solution of acetonitrile formic acid (2%, v/v) was added to precipitate the protein. […] Then, the supernatant was taken for determining the concentration of GA by the LC-MS/MS (MS:3200 QTRAP, AB SCIEX, MA, USA, LC: Agilent1200, Santa Clara, CA, USA) method. The blood concentration-time curve was drawn by taking blood sampling time as the horizontal coordinate and GA concentration as the vertical coordinate. The pharmacokinetic parameters were calculated using DAS 2.0 software.

[2] = Powder dissolution test in 0.1 mol∙L^−1 HCl; format: physicochemical; conditions: after 25 min, 37 ± 0.5 °C
Procedure: Co., Ltd., Shanghai, China) at 25 °C in five different solutions (pH 1, 2, 4, 8 and water, respectively) using the shake-flask method. Excess sample was added in the solvent and the suspension was shaken for 72 h in an air bath. The suspension was filtered through a 0.45 μm Millipore filter. Then, the GA concentration was determined using HPLC (Agilent 1200, Santa Clara, CA, USA). […] Approximately 50 mg of the sample (here single GA and cocrystals equivalent to 50 mg of GA) were placed in 900 mL dissolution media. Four milliliters of the suspensions were taken at appropriate intervals and immediately replaced by 4 mL of fresh dissolution media. All samples were filtered through a 0.45 μm Millipore filter. The concentration of GA in all samples were determined by HPLC. All tests were repeated thrice. Bioavailability in vivo was assayed using SD rats. […] The intragastric suspensions were prepared by suspending GA or the cocrystal (equivalent to same amount of GA) in 5% sodium carboxymethyl cellulose. Thereafter, the intragastric suspensions were orally administered to the rats at a single dose of 50 mg∙kg^-1. An approximately 500 μL blood sample was obtained from the eye canthus and collected into 1.5 mL heparinized plastic centrifuge tubes at the set time point after intragastric administration. […] The pharmacokinetic parameters were calculated using DAS 2.0 software.

α-glucosidase = α-glucosidase (Saccharomyces cerevisiae, UniProt P53341); assay: α-glucosidase inhibitory activity in vitro (pNPG substrate, absorbance at 405 nm); format: biochemical; conditions: in vitro inhibition rate, Figure 4
α-glucosidase, sequence (P53341 whole entry): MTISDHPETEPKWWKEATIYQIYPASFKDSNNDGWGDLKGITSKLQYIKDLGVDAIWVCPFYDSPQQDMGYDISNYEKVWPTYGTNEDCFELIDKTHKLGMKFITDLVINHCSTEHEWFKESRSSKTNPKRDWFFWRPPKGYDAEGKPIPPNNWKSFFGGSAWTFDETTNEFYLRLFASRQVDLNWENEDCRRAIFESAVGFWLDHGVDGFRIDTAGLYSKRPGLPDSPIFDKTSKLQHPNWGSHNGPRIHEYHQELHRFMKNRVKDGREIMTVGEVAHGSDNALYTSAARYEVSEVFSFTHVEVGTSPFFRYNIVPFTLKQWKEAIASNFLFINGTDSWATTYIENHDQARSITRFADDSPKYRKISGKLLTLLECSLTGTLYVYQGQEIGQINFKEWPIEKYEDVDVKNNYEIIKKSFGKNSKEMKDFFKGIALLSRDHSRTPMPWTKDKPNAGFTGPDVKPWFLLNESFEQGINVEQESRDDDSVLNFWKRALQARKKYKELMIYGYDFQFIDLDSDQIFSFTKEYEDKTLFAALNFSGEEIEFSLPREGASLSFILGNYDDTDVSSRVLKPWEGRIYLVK
Procedure: Briefly, accurately weighed α-glucosidase was dissolved in 0.1 mol∙L^−1 potassium phosphate buffer (pH 6.8) to produce 50 μL of enzyme solution with a concentration of 1.0 U∙mL^−1. Fifty microliters of enzyme solution and 50 μL of test sample were mixed in a well of a microtiter plate to incubate for 10 min at 37 °C. Three millimoles of pNPG in the same buffer was used as a substrate solution. After pre-incubation at 37 °C for 10 min, 50 μL of pNPG solution was added into above enzyme solution. The enzymatic reaction was allowed to proceed at 37 °C for 10 min, following the measurement of 4-nitrophenol absorbance at 405 nm on a microplate spectrophotometer. The solution without α-glucosidase was used as a blank. The solution without the test sample was used as a test. The solution without the test sample and α-glucosidase was used as a control.
IC50 values were obtained as the mean of three independent experiments, which were constructed by testing a series of concentrations (i.e., three curves were obtained, each in triplicate).

Row | SMILES | AUC(0-inf) [1] | AUC(0-t) [1] | Cmax [1] | cumulative dissolution [2] | α-glucosidase inhibitory activity (in words) (α-glucosidase)
1 | O=C(O)c1cc(O)c(O)c(O)c1 [GA, gallic acid] | 4200 ± 1200 ng·h/mL | 4100 ± 1200 ng·h/mL | 1500 ± 500 ng/mL | 80% | –
2 | O=C1CCC(=O)N1 [succinimide] | – | – | – | – | no inhibitory activity
